For this assay, the system named is PAF-induced platelet aggregation. The assay can be described thus: Inhibitory effect on PAF-induced platelet aggregation in rabbits (in vitro test). The format is cell-based. The settings on record: Oryctolagus cuniculus, read-out: Inhibition of PAF-induced platelet aggregation IC50. As to the method: Experiment 1: Inhibitory effect on platelet aggregation in rabbits (in vitro test)
Blood samples to which was added 1/10 volume of 3.8% sodium citrate solution were collected from rabbits. Platelet rich plasma (PRP) was prepared by centrifuging the blood sample at 200×g for 10 minutes, and platelet poor plasma (PPP) was prepared by centrifuging the remaining blood sample at 1000× g for 10 minutes.
Aggregation ability was measured with a turbidimetric device (6-channel NKK Hematracer 1, model PAT-6A) according to the method of G.V.R. Born described in J. Physiology, vol. 168, p. 178 (1963). The aggregometer was adjusted in sensitivity to give light transmission values of 0 and 100% for PRP and PPP, respectively. With stirring at 1000 rpm, 0.3 μl of test compound solution or solvent was added to 0.3 ml of PRP. After the mixture was kept at 37° C. for 2 minutes, to the mixture was added 3 μl synthetic PAF at the final concentration of 1.8×10^-7 M and the light transmission was recorded for 5 minutes.
The inhibition percentage of test compounds on platelet aggregation was calculated from the following formula by measuring the maximal light transmission in the presence and absence of the test compounds. [formula]
IC50 (μg/ml, concentration of 50% inhibition) was graphically determined.

≈ marks a conversion by molar mass, not a printed value. Counter-ions that a name gives are not always drawn. Like-named read-outs stand apart in the source and are kept apart here.

Regarding `CCc1cc2c(s1)-n1c(C)nnc1CN=C2c1ccccc1Cl` [Etizolam, 6-(o-chlorophenyl)-8-ethyl-1-methyl-4H-s-triazolo [3,4c]thieno[2,3-e][1,4]diazepine, reference compound], the IC50 (usually the midpoint of a concentration-inhibition curve) (Platelet) is 1.3 µg/mL (≈ 3.79 µM).

Take `Cc1ccccc1C1=NCc2nnc(C)n2-c2sc(C(C)OC(=O)C(C)c3ccc(CC(C)C)cc3)cc21` (centres unmarked) [Example 4, 2-(1-(2-(4-isobutylphenyl)propionyl)oxyethyl)-4-(2-methylphenyl)-9-methyl-6H-thieno[3,2-f][1,2,4]triazolo[4,3-a][1,4]diazepine]: the IC50 (rabbit platelet rich plasma, 37° C., PAF final concentration 1.8×10^-7 M) is 0.03 to 0.1 µg/mL (≈ 0.057 to 0.19 µM).

Turning to `Cc1nnc2n1-c1sc(C(C)OC(=O)C(C)c3ccc(CC(C)C)cc3)cc1C(c1ccccc1Cl)=NC2` (centres unmarked) [Example 2, 2-(1-(2-(4-iso-butylphenyl)propionyl)oxyethyl)-4-(2-chlorophenyl)-9-methyl-6H-thieno[3,2-f][1,2,4]triazolo[4,3-a][1,4]diazepine], the IC50 (Platelet) was in the range of 0.01 to 0.03 µg/mL (≈ 0.0183 to 0.0548 µM).

For `Cc1nnc2n1-c1sc(C(C)OC(=O)C(C)(C)C)cc1C(c1ccccc1Cl)=NC2` (centres unmarked) [Example 14, 4-(2-chlorophenyl)-9-methyl-2(1-pivaloyloxyethyl)-6H-thieno[3,2-f][1,2,4]triazolo[4,3-a][1,4]diazepine], the IC50 (Platelet) was 0.2 µg/mL (≈ 0.451 µM).

For `Cc1nnc2n1-c1sc(C(C)OC(=O)c3ccccc3)cc1C(c1ccccc1Cl)=NC2` (centres unmarked) [Example 13, 2-(1-benzoyloxyethyl)-4-(2-chlorophenyl)-9-methyl-6H-thieno[3,2-f][1,2,4]triazolo[4,3-a][1,4]diazepine.hydrochloride], the IC50 (Platelet) was 0.1 to 0.3 µg/mL.

Values taken from US5028603A, “Ester-substituted thienotriazolodiazepine compounds and pharmaceutical uses thereof” (Yoshitomi Pharmaceutical Industries, Ltd., priority 1987, dated 1991).
